The source of these data is patent US20120040897A1, “NOVEL DERIVATIVES OF ACYL CYANOPYRROLIDINES” (Sun Pharma Advanced Research Company Ltd., priority 2008, published 2012).

What all share (type): biochemical
The target of one test is T1, DPP IV (Rattus norvegicus, UniProt P14740).
T1 construct: from tissue; host or cells: rat plasma
The experiment in a line: Invitro DPP4 inhibition assay in rat plasma. To be noted: substrate Gly-Pro-AMC. As to the method:
The assay system comprises of […] of rat plasma, 20 mM MgCl2 test compound, 50 uM substrate Gly-Pro-AMC & buffer (25 mM HEPES, 140 mM NaCl, 1% BSA, pH 7.8) in a total reaction volume of 100 μl. The test compound was preincubated with plasma and MgCl2 for 10 minutes at 37° C. followed by further incubation of 20 minutes after addition of substrate. The experiment was repeated using vehicle as control. The AMC (7-Amino-4-Methylcoumarin) liberated in the samples was quantified in a Multilable counter at excitation wavelength 355 nm & emission wavelength 462 nm from a standard AMC plot. The DPP4 activity in each sample was represented as pmoles of AMC released/mg/min. Plasma protein was estimated by Lowry's method.

The target of another test is DPP7 (Homo sapiens, UniProt Q9UHL4). The test can be described thus: Percent inhibition of DPP7 activity. The settings on record: at 10000 nM concentration. The source says:
(§1) The following Table 39 gives percent inhibition DPP7, DPP8 & DPP9 activity, as determined for exemplary compounds of the invention

The target in another test is DPP8 (Homo sapiens, UniProt Q6V1X1). The test can be described thus: Percent inhibition of DPP8 activity. To be noted: at 10000 nM concentration.
Excerpt: as §1

The target in the next test is DPP9 (Homo sapiens, UniProt Q86TI2). The experiment in a line: Percent inhibition of DPP9 activity. The settings on record: at 10000 nM concentration.
Excerpt: as §1

T1 sequence (P14740 37-767 limits assumed): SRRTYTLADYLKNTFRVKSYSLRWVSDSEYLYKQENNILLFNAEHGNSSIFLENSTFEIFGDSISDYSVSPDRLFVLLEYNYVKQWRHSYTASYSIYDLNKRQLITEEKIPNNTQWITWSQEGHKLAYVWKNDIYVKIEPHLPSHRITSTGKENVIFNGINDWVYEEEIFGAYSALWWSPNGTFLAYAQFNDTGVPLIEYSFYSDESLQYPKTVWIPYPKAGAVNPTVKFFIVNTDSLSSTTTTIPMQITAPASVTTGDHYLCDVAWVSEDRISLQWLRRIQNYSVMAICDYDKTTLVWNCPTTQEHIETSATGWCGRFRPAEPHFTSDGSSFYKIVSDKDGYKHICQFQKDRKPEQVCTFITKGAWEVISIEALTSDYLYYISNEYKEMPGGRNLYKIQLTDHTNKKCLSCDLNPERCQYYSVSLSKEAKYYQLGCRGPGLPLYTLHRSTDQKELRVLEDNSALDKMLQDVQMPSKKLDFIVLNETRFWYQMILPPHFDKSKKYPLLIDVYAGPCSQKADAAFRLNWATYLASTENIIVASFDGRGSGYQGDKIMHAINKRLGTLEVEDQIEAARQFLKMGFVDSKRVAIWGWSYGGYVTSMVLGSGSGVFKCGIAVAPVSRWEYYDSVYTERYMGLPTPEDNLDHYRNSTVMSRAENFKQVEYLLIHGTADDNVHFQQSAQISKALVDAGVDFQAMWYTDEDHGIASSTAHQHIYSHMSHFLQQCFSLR
DPP9, sequence (Q86TI2 whole entry, species assumed): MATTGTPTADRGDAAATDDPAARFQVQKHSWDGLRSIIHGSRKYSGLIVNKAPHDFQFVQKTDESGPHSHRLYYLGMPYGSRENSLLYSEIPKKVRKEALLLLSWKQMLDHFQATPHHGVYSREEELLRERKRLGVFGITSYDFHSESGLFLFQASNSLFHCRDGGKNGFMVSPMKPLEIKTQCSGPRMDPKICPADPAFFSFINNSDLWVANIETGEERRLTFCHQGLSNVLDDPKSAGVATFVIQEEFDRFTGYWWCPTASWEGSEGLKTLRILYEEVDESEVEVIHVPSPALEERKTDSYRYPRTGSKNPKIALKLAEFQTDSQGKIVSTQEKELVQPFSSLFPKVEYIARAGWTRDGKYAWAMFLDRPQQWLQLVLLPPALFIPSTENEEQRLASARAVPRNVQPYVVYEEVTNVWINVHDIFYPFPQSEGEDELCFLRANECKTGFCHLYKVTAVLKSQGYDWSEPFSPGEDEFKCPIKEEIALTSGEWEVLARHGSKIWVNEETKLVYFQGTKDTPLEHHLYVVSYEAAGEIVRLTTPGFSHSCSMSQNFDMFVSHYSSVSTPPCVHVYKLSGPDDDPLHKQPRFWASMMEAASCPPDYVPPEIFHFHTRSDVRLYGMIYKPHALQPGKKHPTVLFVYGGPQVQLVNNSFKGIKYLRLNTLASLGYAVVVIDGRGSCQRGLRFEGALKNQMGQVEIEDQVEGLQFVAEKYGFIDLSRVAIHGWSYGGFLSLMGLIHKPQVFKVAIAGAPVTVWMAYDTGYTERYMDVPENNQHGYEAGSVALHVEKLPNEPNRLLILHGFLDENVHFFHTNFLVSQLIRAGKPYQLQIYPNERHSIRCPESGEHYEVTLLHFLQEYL
DPP8, sequence (Q6V1X1 whole entry, species assumed): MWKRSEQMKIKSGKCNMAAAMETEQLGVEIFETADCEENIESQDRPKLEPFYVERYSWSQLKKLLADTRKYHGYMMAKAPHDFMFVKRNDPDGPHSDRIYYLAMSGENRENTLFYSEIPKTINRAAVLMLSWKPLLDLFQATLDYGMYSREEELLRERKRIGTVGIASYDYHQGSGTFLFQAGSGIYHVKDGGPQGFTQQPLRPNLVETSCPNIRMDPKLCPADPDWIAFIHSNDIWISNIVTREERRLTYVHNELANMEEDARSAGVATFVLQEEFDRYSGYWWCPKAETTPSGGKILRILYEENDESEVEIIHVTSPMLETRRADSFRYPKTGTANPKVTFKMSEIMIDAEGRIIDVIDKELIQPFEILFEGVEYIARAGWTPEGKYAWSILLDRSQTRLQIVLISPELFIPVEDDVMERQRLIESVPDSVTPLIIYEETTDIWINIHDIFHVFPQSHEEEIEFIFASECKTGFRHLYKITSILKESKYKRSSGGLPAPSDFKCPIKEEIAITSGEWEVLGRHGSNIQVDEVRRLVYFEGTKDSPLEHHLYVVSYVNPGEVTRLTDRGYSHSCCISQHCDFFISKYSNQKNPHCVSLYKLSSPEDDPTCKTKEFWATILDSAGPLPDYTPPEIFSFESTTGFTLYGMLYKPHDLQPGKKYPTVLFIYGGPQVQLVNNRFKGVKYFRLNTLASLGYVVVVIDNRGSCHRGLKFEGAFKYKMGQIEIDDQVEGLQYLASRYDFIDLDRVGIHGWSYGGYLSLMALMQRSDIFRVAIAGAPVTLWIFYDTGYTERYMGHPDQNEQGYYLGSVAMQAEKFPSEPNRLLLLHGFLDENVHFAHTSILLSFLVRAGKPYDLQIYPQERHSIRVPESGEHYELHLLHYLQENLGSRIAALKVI

On DPP IV, `CC1(C)O[C@@H]2[C@@H](CO[C@@]3(CN4CCC(NCC(=O)N5CCC[C@H]5C#N)CC4)OC(C)(C)O[C@@H]23)O1` [Example 1, 2,3:4,5-di-O-isopropylidene-1-[piperidin-(4-aminoacetylpyrrolidine-2-(S)-carbonitrile}-1-yl]-1-deoxy-β-D-fructopyranose] yielded a half-maximal inhibitory concentration (IC50) of 5.98 nM. The inhibition at 10 µM against DPP7 worked out at 0%; against DPP8 it was 18%; against DPP9 it was 29%.

The compound `CC1(NCC(=O)N2CCC[C@H]2C#N)CCN(S(=O)(=O)OC[C@H]2O[C@@H]3OC(C)(C)O[C@@H]3[C@H]3OC(C)(C)O[C@H]32)CC1` [Example 112, 1,2:3,4-di-O-isopropylidene-6-[piperidin-{(4-aminoacetylpyrrolidine-2-(S)-carbonitrile)-4-methyl-1-sulfonyl}-1-yl]-D-galactopyranose] displayed a 50% inhibitory concentration (IC50) at DPP IV of 18.2 nM.

`CCOCCO[C@@H]1O[C@H](CN2CCC(C)(NCC(=O)N3CCC[C@H]3C#N)CC2)[C@H]2OC(C)(C)O[C@@H]12` [Example 123, 2,3-O-Isopropylidene-β-1-O-ethoxyethyl-5-[piperidin-{4-aminoacetylpyrrolidine-2-(S)-carbonitrile}(4-methyl)-1-yl]-5-deoxy-D-ribofuranose] came in with a half-maximal inhibitory concentration (IC50) against DPP IV of 14.3 nM.

The compound `CC1(NCC(=O)N2CCC[C@H]2C#N)CCN(C[C@H]2O[C@@H]3OC(C)(C)O[C@@H]3[C@H]2O)CC1` [Example 135, 1,2-O-Isopropylidene-5-[4-methylpiperidin-{4-aminoacetylpyrrolidine-2-(S)-carbonitrile}-1-yl]-5-deoxy-α-D-xylofuranose] registered an IC50 on DPP IV of 22.3 nM.

As usually defined, the IC50 is the concentration that inhibits the measured activity by half. The term inhibition denotes the share of the control response that was lost under treatment. A high value points to strong suppression.
